US7622269B2, “Methods of screening tyramine- and octopamine-expressing cells for compounds and compositions having potential insect control activity” (Tyratech, Inc., priority 2004, dated 2009)
pEC50, pKi: −log10 of the molar value. Several values for one entry are separate records, joined by “and”; a condition that tells them apart may be missing. Equal values may be shown once.

Experiments:
[1] = molecular target: T1, OAMB (Drosophila melanogaster, UniProt Q7JQF1, L268I/L487I/L521I/T180I); assay: Intracellular calcium (Fura-2) in HEK-293 cells expressing OAMB; details: 10 μM
T1 sequence (Q7JQF1 other isoform, or with tags, fused parts or gaps T180I/L268I/L487I/L524I): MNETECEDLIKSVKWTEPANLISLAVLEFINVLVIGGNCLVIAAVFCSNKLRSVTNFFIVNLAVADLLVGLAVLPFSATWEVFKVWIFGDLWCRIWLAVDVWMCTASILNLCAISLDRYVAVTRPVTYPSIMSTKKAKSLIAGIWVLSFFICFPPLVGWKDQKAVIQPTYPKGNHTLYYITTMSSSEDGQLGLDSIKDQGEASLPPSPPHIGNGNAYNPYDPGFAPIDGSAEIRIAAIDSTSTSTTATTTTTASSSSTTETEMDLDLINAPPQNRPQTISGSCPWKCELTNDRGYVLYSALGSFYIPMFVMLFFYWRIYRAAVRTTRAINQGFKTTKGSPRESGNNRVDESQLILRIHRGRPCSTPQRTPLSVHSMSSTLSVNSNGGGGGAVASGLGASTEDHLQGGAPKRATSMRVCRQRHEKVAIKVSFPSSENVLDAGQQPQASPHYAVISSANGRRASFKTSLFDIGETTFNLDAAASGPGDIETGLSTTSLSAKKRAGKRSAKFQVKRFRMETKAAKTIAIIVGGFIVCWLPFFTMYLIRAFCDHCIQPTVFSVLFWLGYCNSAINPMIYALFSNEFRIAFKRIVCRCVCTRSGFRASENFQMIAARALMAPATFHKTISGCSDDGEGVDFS
Protocol: Cells are collected by scraping and are suspended at about 750,000 cells/ml in HBSS with about 5 μM Fura-2 AM (Sigma-Aldrich).

[2] = molecular target: T1, OAMB; assay: biochemical; type: binding; parameters: Oligonucleotides designed to amplify the open reading frame of Drosophila melanogaster OAMB; expressed in transfected cells
[3] = molecular target: T1, OAMB; assay: cAMP levels in HEK-293 cells expressing OAMB; type: cell-based; parameters: Oligonucleotides designed to amplify the open reading frame of Drosophila melanogaster OAMB; expressed in transfected cells; details: 10 μM
Protocol: (§1) To determine cAMP levels in cells, about 24-hours before cell treatment, 300,000 HEK-293 cells are plated in 1 mL media with 0.8 mg G418/mL into multi-dishes (4.5 cm2). For cell treatment, the media is aspirated and 1 mL PBS with 300 μM IBMX and the test reagent is added. Cells are incubated at 37° C. for 20 min, and the PBS is then aspirated. Cells are incubated with 70% ethanol for 1 hour at −20° C. The cellular debris is centrifuged and then the supernatant is removed and lyophilized to dryness. The amount of cAMP in the extract is determined by using a cAMP binding protein from the ^3H-cAMP Biotrak assay system (Amersham Biosciences, Piscataway, N.J.) as per the manufacturer's instructions.

[4] = molecular target: T2, Pa oa1 (Periplaneta americana, UniProt Q7YWB7); assay: Intracellular calcium (Fura-2) in HEK-293 cells expressing Pa oa1; type: cell-based
T2 sequence (Q7YWB7 entry or part of it): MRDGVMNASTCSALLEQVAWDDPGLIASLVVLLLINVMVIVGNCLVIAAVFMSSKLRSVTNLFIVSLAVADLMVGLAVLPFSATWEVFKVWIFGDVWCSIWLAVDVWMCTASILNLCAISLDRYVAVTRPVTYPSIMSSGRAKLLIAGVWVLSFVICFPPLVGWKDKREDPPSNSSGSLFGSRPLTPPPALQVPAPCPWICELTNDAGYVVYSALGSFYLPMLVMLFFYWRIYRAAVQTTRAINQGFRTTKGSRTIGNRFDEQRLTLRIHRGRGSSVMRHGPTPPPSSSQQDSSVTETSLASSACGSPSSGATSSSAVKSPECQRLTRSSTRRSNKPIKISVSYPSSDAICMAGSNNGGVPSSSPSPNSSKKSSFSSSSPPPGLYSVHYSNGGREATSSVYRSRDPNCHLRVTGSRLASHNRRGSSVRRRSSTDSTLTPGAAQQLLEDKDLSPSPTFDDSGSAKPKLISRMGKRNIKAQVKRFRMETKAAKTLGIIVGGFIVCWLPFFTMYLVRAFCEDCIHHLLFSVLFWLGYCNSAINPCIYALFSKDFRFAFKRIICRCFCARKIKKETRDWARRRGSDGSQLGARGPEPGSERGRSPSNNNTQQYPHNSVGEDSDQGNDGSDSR

[5] = tested on: control HEK-293 cells; assay: cAMP levels in control HEK-293 cells transfected with pCDNA3 without insert; type: cell-based, human
Protocol: (§2) Twenty-four hours before cell treatment, about 300,000 HEK-293 cells are plated in about 1 ml media with about 0.8 mg G418/ml into multi-well dishes (e.g., 12-well, 4.5 cm^2). For cell treatment, the media is aspirated and about 1 ml PBS with about 300 μM IBMX and the test reagent is added. […] Cells are incubated with about 70% ethanol for about 1 h at about −20° C. The cellular debris is centrifuged and then the supernatant is removed and lyophilized to dryness. The amount of cAMP in the extract is determined by using a cAMP binding protein from the ^3H-cAMP Biotrak assay system (Amersham Biosciences) as per the manufacturer's instructions. To test the effects of calcium chelation on cAMP levels, the cells are incubated with about […] BAPTA/AM (Calbiochem Biochemicals, La Jolla, Calif.) for about 10 min before the addition of the test reagents.
To determine which second messenger signaling pathways octopamine could affect through the Pa oa1 receptor, HEK-293 cells are stably transfected with pCDNA3-Pa oa1 or pCDNA3 without an insert as a control.

[6] = molecular target: T2, Pa oa1; assay: cAMP levels in HEK-293 cells expressing Pa oa1; type: cell-based
Protocol: as §2, §1

[7] = tested on: control HEK-293 cells; assay: Intracellular calcium in control HEK-293 cells transfected with empty pCDNA3; type: cell-based, human
[8] = molecular target: T2, Pa oa1; assay: Competitive binding against 3H-yohimbine, Pa oa1 membranes; details: for pKi: Ki

`NCC(O)c1ccc(O)cc1` (racemic) [Octopamine, DL-octopamine] was tested, and the “effect on level of [Ca2+]i” value [1] was “increases the level [Ca^2+]i”, the pKi [2] was 5.09 and the “affinity of octopamine higher than tyramine” value ([2]; OAMB) was “about 4.1 fold”. The “effect on level of cAMP” value [3] was “increases the level of cAMP”, the “lowest concentration that increases intracellular calcium levels” value [4] was “about 10 nM” and the “effect on level of [Ca2+]i” value ([4]; 10 μM) was “increases the level [Ca^2+]i”. The “effect on intracellular calcium” value ([4]; about 100 nM) was “a rapid increase in intracellular calcium is detected”, the “changes in cAMP level” value ([5]; 10 μM, empty vector) was “insignificant changes” and the “effect on cAMP levels” value ([5]; up to about 100 μM) was “neither DL-octopamine nor tyramine at concentrations up to about 100 μM has significant effects on cAMP levels”. For the same compound, the “effect on level of cAMP” value ([6]; 10 μM) was “increases the level of cAMP”, the pEC50 ([6]; 300 μM IBMX, read-out: EC50 for increase in cAMP) was ~5.79 and the fold induction at 100 µM ([6]; HEK293, 20 min, about 100 μM amine, read-out: increase in cAMP) was ~911. The cAMP concentration ([6]; about 10 nM amine, basal about 0.48 pmol cAMP) was “about 1.2 pmol cAMP”, the “changes in [Ca2+]” value ([7]; 10 μM, empty vector) was “insignificant changes” and the “effect on intracellular calcium levels” value ([7]; about 10 μM) was “Neither about 10 μM octopamine nor about 10 μM tyramine modulates intracellular calcium levels”. The pKi ([8]; Table B, 4 nM 3H-yohimbine) was 4.88, the pKi ([8]; about 2 nM 3H-yohimbine) was ~4.88 and 4.88 and the “affinity of octopamine higher than tyramine” value ([8]; Pa oa1) was “about 2.3 fold”.
